Laboratory results taken from PubChem BioAssay AID2060495 (Molecular Pharmacology Branch, DTP, NCI, 2025).

Test system: 521955-158-R2-J5-PDC complex spheroid viability
Assay: Anticancer human tumor 521955-158-R2-J5-PDC patient-derived pancreatic carcinoma cell line growth inhibition [GQUAD]
Conditions: for IC50: curve of first compound; for viability, T/C: stronger effect = lower value
In short: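 Tumor cells were grown as complex spheroids with HUVEC endothelial cells and mesenchymal stem cells as stroma. G-quadruplex stabilizers were combined with targeted agents over half-log dilutions from near the clinical Cmax, or from 10 microM.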

[1] = second compound 0.0316 µM, first compound 0.0316 µM
[2] = second compound 0.0316 µM, first compound 0.1 µM
[3] = second compound 0.0316 µM, first compound 0.316 µM
[4] = second compound 0.0316 µM, first compound 1 µM
[5] = second compound 0.0316 µM, first compound 3.16 µM
[6] = second compound 0.0316 µM, first compound 10 µM
[7] = second compound 0.1 µM, first compound 0.0316 µM
[8] = second compound 0.1 µM, first compound 0.1 µM
[9] = second compound 0.1 µM, first compound 0.316 µM
[10] = second compound 0.1 µM, first compound 1 µM
[11] = second compound 0.1 µM, first compound 3.16 µM
[12] = second compound 0.1 µM, first compound 10 µM
[13] = second compound 0.316 µM, first compound 0.0316 µM
[14] = second compound 0.316 µM, first compound 0.1 µM
[15] = second compound 0.316 µM, first compound 0.316 µM
[16] = second compound 0.316 µM, first compound 1 µM
[17] = second compound 0.316 µM, first compound 3.16 µM
[18] = second compound 0.316 µM, first compound 10 µM
[19] = second compound 1 µM, first compound 0.0316 µM
[20] = second compound 1 µM, first compound 0.1 µM
[21] = second compound 1 µM, first compound 0.316 µM
[22] = second compound 1 µM, first compound 1 µM
[23] = second compound 1 µM, first compound 3.16 µM
[24] = second compound 1 µM, first compound 10 µM
[25] = second compound 3.16 µM, first compound 0.0316 µM
[26] = second compound 3.16 µM, first compound 0.1 µM
[27] = second compound 3.16 µM, first compound 0.316 µM
[28] = second compound 3.16 µM, first compound 1 µM
[29] = second compound 3.16 µM, first compound 3.16 µM
[30] = second compound 3.16 µM, first compound 10 µM
[31] = second compound 10 µM, first compound 0.0316 µM
[32] = second compound 10 µM, first compound 0.1 µM
[33] = second compound 10 µM, first compound 0.316 µM
[34] = second compound 10 µM, first compound 1 µM
[35] = second compound 10 µM, first compound 3.16 µM
[36] = second compound 10 µM, first compound 10 µM
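Also: spheroids exposed to agents for one week before reading.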
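For viability, T/C in this document: 100% = DMSO vehicle control viability.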

O=C(c1cc(Cc2n[nH]c(=O)c3ccccc23)ccc1F)N1CCN(C(=O)C2CC2)CC1 + Cc1cnc(CNC(=O)c2c(=O)c3ccc(N4CCCN(C)CC4)nc3n3c2sc2ccccc23)cn1
IC50 (second compound 0.0316 µM): > 10000 nM | IC50 (second compound 0.1 µM): 2860 nM | IC50 (second compound 0.316 µM): < 31.6 nM | IC50 (second compound 1 µM): < 31.6 nM | IC50 (second compound 3.16 µM): < 31.6 nM | IC50 (second compound 10 µM): < 31.6 nM | viability, T/C [1]: 83.5% | viability, T/C [2]: 56% | viability, T/C [3]: 77.1% | viability, T/C [4]: 64.4% | viability, T/C [5]: 75.4% | viability, T/C [6]: 59.7% | viability, T/C [7]: 60.3% | viability, T/C [8]: 63.5% | viability, T/C [9]: 59.7% | viability, T/C [10]: 52.9% | viability, T/C [11]: 51.8% | viability, T/C [12]: 32.5% | viability, T/C [13]: 35.1% | viability, T/C [14]: 50% | viability, T/C [15]: 37.9% | viability, T/C [16]: 36.9% | viability, T/C [17]: 30.8% | viability, T/C [18]: 24.1% | viability, T/C [19]: 18% | viability, T/C [20]: 19.9% | viability, T/C [21]: 22.8% | viability, T/C [22]: 23.9% | viability, T/C [23]: 21.1% | viability, T/C [24]: 16.1% | viability, T/C [25]: 16.6% | viability, T/C [26]: 19.6% | viability, T/C [27]: 21.1% | viability, T/C [28]: 15.9% | viability, T/C [29]: 16.5% | viability, T/C [30]: 13.9% | viability, T/C [31]: 21.2% | viability, T/C [32]: 18.9% | viability, T/C [33]: 18.1% | viability, T/C [34]: 18.2% | viability, T/C [35]: 16.7% | viability, T/C [36]: 12.1%

CC(C)(O)C1CCC(Nc2ccc3ncc(-c4cccc(C(F)(F)F)c4)n3n2)CC1 (stereo unspecified) + Cc1cnc(CNC(=O)c2c(=O)c3ccc(N4CCCN(C)CC4)nc3n3c2sc2ccccc23)cn1
IC50 (second compound 0.0316 µM): 1680 nM | IC50 (second compound 0.1 µM): 1200 nM | IC50 (second compound 0.316 µM): < 31.6 nM | IC50 (second compound 1 µM): < 31.6 nM | IC50 (second compound 3.16 µM): < 31.6 nM | IC50 (second compound 10 µM): < 31.6 nM | viability, T/C [1]: 79% | viability, T/C [2]: 64.6% | viability, T/C [3]: 90.4% | viability, T/C [4]: 106% | viability, T/C [5]: 6.53% | viability, T/C [6]: 7.58% | viability, T/C [7]: 57.4% | viability, T/C [8]: 57.8% | viability, T/C [9]: 56.5% | viability, T/C [10]: 58.6% | viability, T/C [11]: 9.19% | viability, T/C [12]: 8.3% | viability, T/C [13]: 36.9% | viability, T/C [14]: 30.2% | viability, T/C [15]: 34% | viability, T/C [16]: 31.8% | viability, T/C [17]: 7.87% | viability, T/C [18]: 8.39% | viability, T/C [19]: 18.4% | viability, T/C [20]: 21.1% | viability, T/C [21]: 16.7% | viability, T/C [22]: 22.3% | viability, T/C [23]: 0.25% | viability, T/C [24]: 1.56% | viability, T/C [25]: 18.8% | viability, T/C [26]: 16.6% | viability, T/C [27]: 17.7% | viability, T/C [28]: 15% | viability, T/C [29]: 0.12% | viability, T/C [30]: 0.12% | viability, T/C [31]: 9.8% | viability, T/C [32]: 14% | viability, T/C [33]: 10.7% | viability, T/C [34]: 8.62% | viability, T/C [35]: 0.21% | viability, T/C [36]: 0.23%

Cc1cccc(N(C)C(=O)C2C(O)CCN2c2nc(C)cc(C(F)(F)F)c2C#N)c1 (stereo unspecified) + Cc1[nH]c2ccc(F)cc2c1-c1nc2c3cccnc3c3ncccc3c2[nH]1
IC50 (second compound 0.0316 µM): > 10000 nM | IC50 (second compound 0.1 µM): > 10000 nM | IC50 (second compound 0.316 µM): > 10000 nM | IC50 (second compound 1 µM): > 10000 nM | IC50 (second compound 3.16 µM): > 10000 nM | IC50 (second compound 10 µM): > 10000 nM | viability, T/C [1]: 111% | viability, T/C [2]: 85.8% | viability, T/C [3]: 110% | viability, T/C [4]: 107% | viability, T/C [5]: 110% | viability, T/C [6]: 123% | viability, T/C [7]: 92.2% | viability, T/C [8]: 109% | viability, T/C [9]: 94.7% | viability, T/C [10]: 106% | viability, T/C [11]: 126% | viability, T/C [12]: 120% | viability, T/C [13]: 91.1% | viability, T/C [14]: 93.5% | viability, T/C [15]: 101% | viability, T/C [16]: 114% | viability, T/C [17]: 112% | viability, T/C [18]: 111% | viability, T/C [19]: 92.7% | viability, T/C [20]: 100% | viability, T/C [21]: 108% | viability, T/C [22]: 105% | viability, T/C [23]: 128% | viability, T/C [24]: 115% | viability, T/C [25]: 110% | viability, T/C [26]: 88.2% | viability, T/C [27]: 92.5% | viability, T/C [28]: 91.8% | viability, T/C [29]: 132% | viability, T/C [30]: 120% | viability, T/C [31]: 115% | viability, T/C [32]: 104% | viability, T/C [33]: 104% | viability, T/C [34]: 122% | viability, T/C [35]: 126% | viability, T/C [36]: 113%
